The results in this text go back to paper PMC3441706 (PLoS ONE, 2012).

Test [1] has as its system HepG2 cells. The test is described as follows: Clonogenic assay. It is filed as cell-based, human. The following applies: HepG2, 12 days incubation. On the procedure: (§1) For clonogenic assays, HT-29 and HepG2 cells were plated in 60 mm dishes at a density of 1000 cells per dish. After 24 hours NVX-412 was added at the indicated concentrations. After cultivation for 12–14 days (when assessable colonies were visible), colonies were fixed in 70% ethanol, stained with 0.5% Crystal Violet and counted manually.

The subject of test [2] is HT-29 cells. The test is described as follows: Clonogenic assay. In kind it is cell-based, human. The following applies: HT-29, 14 days incubation. On the procedure: as §1
The subject of test [3] is HeLa cells. Nature of the test: Morphology assay / quantification of cell sizes. The settings on record: 48 hours treatment. It is filed as cell-based, human. The method, then: (§2) To investigate potential morphological changes upon treatment with NVX-412, HCT116, HeLa and HT-29 cells were plated in 6-well plates and incubated for up to 72 hours with the indicated concentrations of NVX-412, DMSO as vehicle control and 1 µM Camptothecin (CPT) as a positive control for apoptotic morphology. Control experiments were carried out to ensure that morphological changes are not due to differences in confluency. After 24, 48 and 72 hours pictures were taken with an Olympus IX71 inverted microscope and camera system (Olympus Color View III) at 20× magnification.
(§3) Cell sizes were quantified using specialized imaging software (ImageJ 1.45d, US NIH, Bethesda, MD, USA). Average areas of all cells present within 5 different fields of view per sample were determined after 48 hours treatment with 0, 0.15 and 1 µM NVX-412.

Test [4] concerns HCT116 cells. The test is described as follows: Morphology assay / quantification of cell sizes. In kind it is cell-based, human. The following applies: HCT116, 48 hours treatment, 0.15 and 1 µM. On the procedure: as §2, §3
Test [5] deals with HT-29 cells. The test is described as follows: Morphology assay / quantification of cell sizes. In kind it is cell-based, human. The following applies: HT-29, 48 hours treatment. On the procedure:
as §2, §3

The subject of test [6] is 59 different human tumor cell lines. Nature of the test: NCI-60 DTP human tumor cell line screen, all cell lines combined. In kind it is cell-based. The following applies: 48 h, all cancer types, 48 hours incubation. On the procedure: NVX-412 was included in an anti-cancer activity screen by the National Cancer Institute (NCI). The compound was tested against 59 different human tumor cell lines, representing leukemia, melanoma and cancers of the lung, colon, brain, ovary, breast, prostate, and kidney (for a complete list of cell lines please refer to Shoemaker et al. 2006 [5]). The methodology of this in vitro cancer screen is described in detail on the NCI website (http://dtp.nci.nih.gov/branches/btb/ivclsp.html). Briefly, the human tumor cell lines of the cancer screening panel were grown in RPMI 1640 medium containing 5% FCS and 2 mM L-glutamine in 96-well plates at densities ranging from 5,000 to 40,000 cells/well. After 24 hours the experimental drug was added at 5 concentrations plus control and cells were incubated for additional 48 hours. For determination of the growth-inhibitory effect of the compound a sulphorhodamine B assay was performed that employs a chemical fixation step at the end of drug treatment and a subsequent staining for 10 minutes. After a washing step, absorbance was determined at 515 nm. […]

Test [7] concerns Normal human endothelial cells (HUVEC). The test is described as follows: Cytotoxicity assay, normal cells. In kind it is cell-based. On the procedure: (§4) Cells were plated in 24-well plates. After cells were allowed to recover for 24 hours, NVX-412 was added in fresh growth medium. The maximal DMSO concentration reached in all experiments was below 0.01%. Respective control experiments at the highest DMSO concentration were performed in order to rule out DMSO-induced effects. After 72 hours incubation the proportion of viable cells was determined by cell counting with a Z1 Coulter Particle Counter (Beckman Coulter, Vienna, AUT), a ViCell XR (Beckman Coulter, Vienna, AUT) or a CASY® Cell Counter (Schärfe, Reutlingen, Germany). Cytotoxicity was expressed as IC50 values that were derived from the corresponding dose–response curves.

Test [8] relates to human white preadipocytes (hWP). Nature of the test: Cytotoxicity assay, normal cells. It is filed as cell-based. On the procedure: as §4
The test system of test [9] is pChk1 (Ser296). The test is described as follows: Western Blot for pChk1 (Ser296) in HCT116 cells. In kind it is cell-based, human. The following applies: HCT116, 150 nM, 0–48 hours. The method, then: (§5) Treated cells were directly lysed in NP40 cell lysis buffer (Invitrogen, Grand Island, NY, USA) containing protease and phosphatase inhibitors. Protein concentrations were measured colorimetrically (DC Protein Assay, Bio-Rad Laboratories, Hercules, CA, USA). Proteins were separated by SDS - polyacrylamide gel electrophoresis and blotted onto nitrocellulose membranes (Whatman™, Vienna, AUT). Equal loading was checked by Ponceau S (SERVA, Heidelberg, GER) staining. Bound antigen was visualized with the enhanced chemiluminescence detection system (Roche Diagnostics, Indianapolis, IN, USA). These procedures were performed according to the manufacturer’s protocols. Antibodies specific for the following proteins of interest were used: pChk1 (Ser296), p-p53 (Ser15), β-Tubulin and GAPDH were obtained from Cell Signaling Technology (Danvers, MA, USA) at 1∶1000 dilution. Secondary antibodies were peroxidase-tagged goat anti-rabbit or anti-mouse IgGs (Cell Signaling Technology) (1∶2000).

Test [10] relates to HeLa cells. The test is described as follows: DNA replication rate (BrdU incorporation ELISA). In kind it is cell-based, human. On the procedure:
(§6) HeLa and HCT116 cells were plated in black 96-well plates. After cells were allowed to recover for 24 hours NVX-412 or CPT was added in fresh growth medium. After 24 hours of incubation a chemiluminescent BrdU Incorporation ELISA (Roche Applied Science, Penzberg, Germany) was performed with half of the plates according to the manufacturer’s protocol. Cells in the remaining plates were allowed to recover for 24 hours in normal growth medium before DNA replication was measured (wash-out experiment). To check whether a possible decline in DNA replication rate is not simply due to lower cell numbers because of cell death induction, the proportion of viable cells was determined in parallel by a MTT-based cytotoxicity assay according to the manufacturer’s protocol (EZ4U, Biomedica, Vienna, Austria). Colorimetric (at 492 and 620 nm) and chemiluminescent measurements were performed using a FLUOstar OPTIMA (BMG Labtech, Ortenberg, Germany).
(Uptake of a labelled nucleoside into DNA is a usual measure of proliferation.)

The subject of test [11] is HCT116 cells. Nature of the test: DNA replication rate (BrdU incorporation ELISA). It is filed as cell-based, human. On the procedure: as §6
Test [12] relates to HCT116. The test is described as follows: Cytotoxicity assay (cell counting). In kind it is cell-based, Human. On the procedure:
as §4

Test [13] deals with HT-29. Nature of the test: Cytotoxicity assay (cell counting). It is filed as cell-based, Human. The method, then:
as §4

Test [14] has as its system p-p53 (Ser15). Nature of the test: Western Blot for p-p53 (Ser15) in HCT116 cells. It is filed as cell-based, human. The following applies: HCT116, 24 and 48 hours. On the procedure: as §5
A general note: Immunoblotting shows a protein as a band on a membrane.

Test [15] deals with all cell lines tested. The test is described as follows: β-galactosidase staining (cellular senescence). The following applies: data not shown. It is filed as cell-based.

Usually IC50 stands for the point on the concentration scale where inhibition reaches its midpoint. For `O=C(NNc1nc2cc(F)ccc2n2cccc12)c1cnccn1` [NVX-412, Pyrazine-2-carboxylic acid N’- (7-fluoro-pyrrolo[1,2-α]quinoxalin-4-yl)-hydrazide-oxalic acid co-crystal], the Clonogenic survival entry in [1] was “reduced the ability of HepG2 and HT-29 cells to form colonies in a dose-dependent manner”; in [2], “reduced the ability of HepG2 and HT-29 cells to form colonies in a dose-dependent manner”. Besides, the Cell sizes entry in [3], in test [4] and in test [5] was “highly significant increase in cell sizes” each time. Also, the half-inhibitory concentration (IC50) is about 0.2 µM in [6]; 2 µM in [7]; 1 µM in [8]; 0.15 µM in [12] (Homo sapiens, HCT-116, HCT116, colon carcinoma, 72 hours incubation); 0.3 µM in test [13] (Homo sapiens, HT-29, colon adenocarcinoma, 72 hours incubation). Further, in [9], the “Chk1 Ser296 phosphorylation” value is “increased after 4 hours”. Moreover, the “DNA replication rate (BrdU incorporation)” value in test [10] (24 hours treatment) is “reduction of DNA replication”; in test [11] (HCT116, 24 hours treatment), “reduction of DNA replication”. The “DNA replication rate after recovery (wash-out)” value is listed as “the rate increased to normal levels” in [10] (24 hours treatment then 24 hours in normal growth medium) and “the rate increased to normal levels” in test [11] (HCT116, 24 hours treatment then 24 hours in normal growth medium). The “IC50 lower compared to the parental compound NVX-144” value in [12] (HCT116 colon carcinoma cell line) and in [13] (HT-29 colon carcinoma cell line) was 3 to 4 fold in each case. Besides, the “Phosphorylated p53 (Western Blot)” value is given as “negative for phosphorylated p53” in [14] (below or at the IC50) and “strong induction” in [14] (concentrations above the IC50). Besides, the “β-galactosidase staining (senescence)” value in test [15] is “negative in all cell lines tested”.
